In PMC8958505, “Discovery of Potential Neuroprotective Agents against Paclitaxel-Induced Peripheral Neuropathy” (Journal of Medicinal Chemistry, 2022):
Where a name gives a salt, the structure may show the parent alone. Read-outs that look alike come from different tables or passages of the source.

Legend:
[1] = system: mouse primary DRG neurons; assay: Neurite outgrowth assay of DRG neurons (image-based HCS) against paclitaxel-induced neurotoxicity; type: cell-based; conditions: for activation at 1 µM: Mus musculus, DRG neuron
Method: All these 19 compounds were then subjected to the neurite outgrowth assay of dorsal root ganglion (DRG) neurons paired with an image-based HCS to analyze whether they had neuroprotective potential. Quantification of neurite outgrowth under different regimens is shown in Figure 3, wherein DRG neurons incubated in 50 nM paclitaxel could cause 60% reduction in neurite outgrowth compared to the control (no drug treatment). […] Taken together, CN016 is selected as a promising lead for further development.
(§1) Primary cortical or DRG cells were fixed with 4% paraformaldehyde for 15 min following compound and paclitaxel treatment. After washing with PBS, the fixed cells were permeabilized with PBS containing 0.05% Triton X-100 for 20 min and then blocked with commercial blocking buffer (#GTX30963; GeneTex, USA) at room temperature for 1 h. Subsequently, the cortical cells were stained for the extending processes and synaptic puncta by using anti-MAP2 (#MBS502140, 1:500; Mybiosource, USA) and anti-synaptophysin (#ab32127, 1:500; Abcam, UK) overnight. DRG cells were stained for the neurite and neuron nucleus by using anti-β III tubulin (#D71G9, 1:600; Cell Signaling, USA) and anti-NeuN monoclonal antibody (#MAB377, 1:400; Millipore, USA) overnight. On the second day, the samples were washed for 30 min with wash buffer and incubated with secondary antibodies (Alexa-488, 647 1:600; Thermo Fisher, USA) and 4 μg/mL Hoechst 33258 (#94403-1ML, 1:100; Merck, USA) at room temperature for 1 h. In the initial experiments of screening the potential neuroprotective compound for CIPN, ImageXpress^Micro (IXM) high-content imaging system (Molecular Devices, USA) driven by MetaXpress software was used. Images of treated cells were automatically acquired by using a 10× objective. Twenty-one images per well were taken in each of three channels (DAPI, FITC, and Cy5) to create a whole view of the entire neural network. The integrity of the neural network was evaluated using TIF images by importing them into MetaXpress software for analysis using the module for multiparameter, such as Neurite Outgrowth, Cell Scoring, and Transfluor. Furthermore, the score of synaptogenesis was analyzed in AcuityXpress software (Molecular Devices, USA).

primary cortical neurons [2] = assay: Synaptogenesis assay of primary cortical neurons (image-based HCS) against paclitaxel-induced neurotoxicity; type: cell-based, mouse; conditions: for activity at 0.01 µM / activity at 1 µM: Mus musculus, Primary cortical neuron; for activity at 0.01 µM: read-out: A: Synaptogenesis (% of control) of test compound (10 nM) + paclitaxel (1 μM); for activity at 1 µM: read-out: B: Synaptogenesis (% of control) of test compound (1000 nM) + paclitaxel (1 μM); for attenuation of synaptogenesis inhibited by paclitaxel (in words): test compound 10 and 1000 nM prior to paclitaxel 1 μM, Figure 1A
Source text: (§2) Herein, we wish to report that an in vitro neurite outgrowth assay of cortical neurons integrated with an image-based high-content screening (HCS) platform is used to evaluate a commercially available library of 78 minoxidil-related derivatives,[22] leading to the identification of a series of analogues able to prevent or alleviate paclitaxel-induced neurotoxicity. The project began with screening compounds with the primary culture of cortical neurons from neonatal mice. More specifically, cerebral cortex neurons cultured from P0 C57BL/6J mouse pups were incubated with a test compound (10 and 1000 nM) prior to paclitaxel (1 μM) treatment. Subsequently, both neurite outgrowth and synaptogenesis were measured to evaluate the test compounds’ neuroprotective capacity. […] This unique feature is preserved for the core-structure screening of our in-house library in the following subject. Moreover, the substituent at the C4 position appears flexible in terms of structural diversity. Collectively, CSV0A024807, the only one displaying the best neuroprotective potency on both neurite outgrowth and synaptogenesis assays, was thus elected as a potential hit compound for further development.
as §1

primary cortical neurons [3] = assay: Neurite outgrowth assay of primary cortical neurons (image-based HCS) against paclitaxel-induced neurotoxicity; type: cell-based, mouse; conditions: for activity at 0.01 µM / activity at 1 µM: Mus musculus, Primary cortical neuron; for activity at 0.01 µM: read-out: C: Neurite outgrowth (% of control) of test compound (10 nM) + paclitaxel (1 μM); for activity at 1 µM: read-out: D: Neurite outgrowth (% of control) of test compound (1000 nM) + paclitaxel (1 μM)
Source text: as §2, §1

[4] = Table S2, test compound 1000 nM + paclitaxel 50 nM minus paclitaxel 50 nM, read-out: Neuroprotection rate = (A-B) ± S.E.M [%]
[5] = supplementary CSV, test compound 1000 nM, read-out: A-B (A: neurite outgrowth (% of control) of test compound (1000 nM) + paclitaxel (50 nM), B: of paclitaxel (50 nM))
[6] = Table 1, A: neurite outgrowth (% of control) of test compound 1000 nM + paclitaxel 50 nM, B: paclitaxel 50 nM alone, DRG neurons, read-out: Neuroprotection rate = (A-B)±S.E.M [%]
[7] = test compound 10 nM + paclitaxel 1 μM, mean ± SE
[8] = test compound 1000 nM + paclitaxel 1 μM, mean ± SE

SMILES | activation at 1 µM [1, 5] | activity at 0.01 µM (primary cortical neurons [2]; [7]) | activity at 1 µM (primary cortical neurons [2]; [8]) | activity at 0.01 µM (primary cortical neurons [3]; [7]) | activity at 1 µM (primary cortical neurons [3]; [8]) | further results
O=P(O)(O)CCN1CCC(Nc2cc(N3CCOCC3)nc(NCc3ccc(CCO)cc3)n2)CC1 [CN019] | -2% | – | – | – | – | activation at 1 µM [1, 4]: -2 ± 1.2%; protective efficacy against paclitaxel-induced neurotoxicity (in words) ([1]; pretreated, + 50 nM paclitaxel, DRG neurons): inactive
O=P(O)(O)CCN1CCC(Nc2cc(N3CCCCC3)nc(NCc3cn(CCCO)nn3)n2)CC1 [CN022, {2-[4-(2-{[1-(3-Hydroxy-propyl)-1H-[1,2,3]triazol-4-ylmethyl]-amino}-6-piperidin-1-yl-pyrimidin-4-ylamino)-piperidin-1-yl]-ethyl}-phosphonic Acid Hydrobromide Salt] | 6% | – | – | – | – | activation at 1 µM [1, 6]: 6 ± 0.78%
O=C(CCNC(=O)C1(O)CC(O)C(O)C(O)C1)N1CCC(Nc2cc(N3CCOCC3)nc(NCc3cn(CCCNCCO)nn3)n2)CC1 (stereo not drawn) [CN007, 1,3,4,5-Tetrahydroxy-cyclohexanecarboxylic Acid (3-{4-[2-({1-[3-(2-Hydroxy-ethylamino)-propyl]-1H-[1,2,3]triazol-4-ylmethyl}-amino)-6-morpholin-4-yl-pyrimidin-4-ylamino]-piperidin-1-yl}-3-oxo-propyl)-amide Hydrochloride Salt] | 7% | – | – | – | – | activation at 1 µM [1, 4]: 7 ± 1.05%
COCCCn1cc(CNc2nc(NC3CCN(CCC(=O)OC)CC3)cc(N3CCOCC3)n2)nn1 [CN010, 3-[4-(2-{[1-(3-Methoxy-propyl)-1H-[1,2,3]triazol-4-ylmethyl]-amino}-6-morpholin-4-yl-pyrimidin-4-ylamino)-piperidin-1-yl]-propionic Acid Methyl Ester] | 5% | – | – | – | – | activation at 1 µM [1, 4]: 5 ± 3.06%
O=P(O)(O)CCN1CCC(Nc2cc(N3CCOCC3)nc(NCc3cn(CCO)nn3)n2)CC1 [CN020, (2-(4-((2-(((1-(2-Hydroxyethyl)-1H-1,2,3-triazol-4-yl)methyl)amino)-6-morpholinopyrimidin-4-yl)amino)piperidin-1-yl)ethyl)phosphonic Acid Hydrobromide Salt] | 8% | – | – | – | – | activation at 1 µM [1, 6]: 8 to 11%
O=P(O)(O)CCN1CCC(Nc2cc(N3CCSCC3)nc(NCc3cn(CCCO)nn3)n2)CC1 [CN023, {2-[4-(2-{[1-(3-Hydroxy-propyl)-1H-[1,2,3]triazol-4-ylmethyl]-amino}-6-thiomorpholin-4-yl-pyrimidin-4-ylamino)-piperidin-1-yl]-ethyl}-phosphonic Acid Hydrobromide Salt] | 4% | – | – | – | – | activation at 1 µM [1, 6]: 4 ± 1.43%
CSCCCn1cc(CNc2nc(NC3CCN(Cc4ccccc4)CC3)cc(N3CCOCC3)n2)nn1 [CN003, N4-(1-Benzyl-piperidin-4-yl)-N2-[1-(3-methylsulfanyl-propyl)-1H-[1,2,3]triazol-4-ylmethyl]-6-morpholin-4-yl-pyrimidine-2,4-diamine] | 1% | – | – | – | – | activation at 1 µM [1, 4]: 1 ± 2.6%
COc1cc(/C=N/Nc2cc(N(C)C)nc(N(C)C)n2)ccc1O [CSV0A055768] | – | – | – | – | – | activity at 0.01 µM (primary cortical neurons [2]): 35 ± 4%; activity at 1 µM (primary cortical neurons [2]): 33 ± 0.2%; activity at 0.01 µM (primary cortical neurons [3]): 71 ± 2%; activity at 1 µM (primary cortical neurons [3]): 74 ± 6%
O=C(CCc1ccccc1)NNc1cc(N2CCCCC2)nc(N2CCCCC2)n1 [CSV0A062711] | – | – | – | – | – | activity at 0.01 µM (primary cortical neurons [2]): 36 ± 0.5%; activity at 1 µM (primary cortical neurons [2]): 28 ± 3%; activity at 0.01 µM (primary cortical neurons [3]): 80 ± 11%; activity at 1 µM (primary cortical neurons [3]): 79 ± 6%
COc1ccccc1/C=N/Nc1cc(N2CCOCC2)nc(N2CCOCC2)n1 [CSV0A013031] | – | 57 ± 1% | 33 ± 3% | 74 ± 3% | 67 ± 6% | –
CCN(CC)c1cc(N/N=C/c2ccncc2)nc(N(CC)CC)n1 [CSV0A029945] | – | 35 ± 6% | 50 ± 0.3% | 41 ± 8% | 75 ± 8% | –
CN(C)c1cc(N/N=C/c2cccs2)nc(N(C)C)n1 [CSV0A055769] | – | 83 ± 1% | 97 ± 8% | 68 ± 3% | 62 ± 2% | attenuation of synaptogenesis inhibited by paclitaxel (in words) (primary cortical neurons [2]): significantly attenuated
O=[N+]([O-])c1ccc(/C=N/Nc2cc(N3CCOCC3)nc(N3CCOCC3)n2)cc1 [CSV0A024806] | – | – | – | – | – | A: Synaptogenesis (% of control) of test compound (10 nM) + paclitaxel (1 μM) (primary cortical neurons [2]; [7]): 68±6 % of control; B: Synaptogenesis (% of control) of test compound (1000 nM) + paclitaxel (1 μM) (primary cortical neurons [2]; [8]): 78±5 % of control; C: Neurite outgrowth (% of control) of test compound (10 nM) + paclitaxel (1 μM) (primary cortical neurons [3]; [7]): 70±3 % of control; D: Neurite outgrowth (% of control) of test compound (1000 nM) + paclitaxel (1 μM) (primary cortical neurons [3]; [8]): 68±6 % of control
O=[N+]([O-])c1cccc(/C=N/Nc2cc(N3CCOCC3)nc(N3CCOCC3)n2)c1 [CSV0A024807] | – | 92 ± 2% | 97 ± 2% | 69 ± 3% | 60 ± 1% | attenuation of synaptogenesis inhibited by paclitaxel (in words) (primary cortical neurons [2]): significantly attenuated; rescue of neuronal damage caused by paclitaxel (immunofluorescence images) (primary cortical neurons [3]; pretreated, primary cortical neuron culture, Figure 1B): significantly rescued; protective effect in the neurite outgrowth assay (in words) (primary cortical neurons [3]; test compound 10 and 1000 nM prior to paclitaxel 1 μM, Figure 1A): significant protective effect
CN(C)c1cc(NNC(=O)c2ccc(C(C)(C)C)cc2)nc(N(C)C)n1 [CSV0B002001] | – | 35 ± 3% | 35 ± 3% | 44 ± 3% | 44 ± 3% | –
Clc1ccc(/C=N/Nc2cc(N3CCOCC3)nc(N3CCOCC3)n2)cc1 [CSV0A024808] | – | 27 ± 1% | 25 ± 1% | 91 ± 1% | 89 ± 4% | –
CN(C)c1cc(N/N=C/c2ccccc2O)nc(N(C)C)n1 [CSV0A034003] | – | – | – | – | – | A: Synaptogenesis (% of control) of test compound (10 nM) + paclitaxel (1 μM) (primary cortical neurons [2]; [7]): 67±5 % of control; B: Synaptogenesis (% of control) of test compound (1000 nM) + paclitaxel (1 μM) (primary cortical neurons [2]; [8]): 66±9 % of control; C: Neurite outgrowth (% of control) of test compound (10 nM) + paclitaxel (1 μM) (primary cortical neurons [3]; [7]): 61±3 % of control; D: Neurite outgrowth (% of control) of test compound (1000 nM) + paclitaxel (1 μM) (primary cortical neurons [3]; [8]): 62±3 % of control
CN(C)c1cc(N/N=C/c2ccc(Cl)cc2Cl)nc(N(C)C)n1 [CSV0A047585] | – | 67 ± 2% | 56 ± 0.2% | 57 ± 2% | 57 ± 2% | –
O=C(CCc1ccccc1)NNc1cc(N2CCCC2)nc(N2CCCC2)n1 [CSV0C019163] | – | – | – | – | – | activity at 0.01 µM (primary cortical neurons [2]): 49 ± 4%; activity at 1 µM (primary cortical neurons [2]): 53 ± 1%; activity at 0.01 µM (primary cortical neurons [3]): 68 ± 7%; activity at 1 µM (primary cortical neurons [3]): 74 ± 1%
CCN(CC)c1cc(N/N=C/c2ccccc2O)nc(N(CC)CC)n1 [CSV0B018834] | – | 30 ± 3% | 31 ± 3% | 39 ± 3% | 39 ± 2% | –
CC(C)(C)c1ccc(C(=O)NNc2cc(N3CCCCC3)nc(N3CCCCC3)n2)cc1 [CSV0B001160] | – | 51 ± 5% | 41 ± 1% | 89 ± 7% | 80 ± 5% | –
